Measured values: ChEMBL document CHEMBL1151296, “Ipomopsin, a New Biscoumarin from Ipomopsis aggregata” (J Nat Prod, 1984)
Active and inactive are the calls of the source. No cut-off for these calls is given here.

Columns and labels:
KB = assay: Cytotoxicity against human KB cells; format: functional, cell-based
P388 = assay: Cytotoxicity against mouse P388 cells; format: functional, cell-based

Structure (SMILES): COc1cc2cc(-c3c(O)c(OC)cc4ccc(=O)oc34)c(=O)oc2cc1O
- Activity (KB): inactive
- Activity (P388): inactive
